# Target: human Autotaxin protein (Homo sapiens, UniProt Q13822)
# Experiment: Evaluation of the inhibitory activity against human Autotaxin protein (18:1 LysoPC substrate, choline assay kit, absorbance at 570 nm)
# Format: biochemical
# Conditions: compound at 500nM; 2 hours at 37 °C; % inhibition = (1 - absorbance test group / absorbance control group) X 100
# Method: Solutions of each compound synthesized (80 uM, 100% dimethyl sulfoxide) were sequentially diluted 5-fold with dimethyl sulfoxide to prepare 6 concentrations. Each concentration of the compound was diluted 2-fold with 1x test buffer (50 mM Tris-Cl (pH 8.0), 5 mM KCl, 1 mM CaCl2, 1 mM MgCl2, 140 mM NaCl, deionized water, 1 mg/mL BSA), and 1 uL (1.25% dimethyl sulfoxide) of this diluted mixture was dispensed into each well of a 96-well clear round-bottom plate. 9 uL of 1x test buffer was added, and 20 uL of 240 nM human autotaxin protein (buffer: 50 mM Tris-HCl, pH 8.0, with 150 mM sodium chloride and 20% glycerol) was added. 10 uL of sonicated 360 uM 18:1 LysoPC (diluted with 1x assay buffer) was added. The reaction was performed for 2 hours in a shaking incubator at 37 °C, and a secondary reaction mixture (choline assay kit, KA1662) (65 uL of 1x assay buffer: 1 uL of choline oxidase: 1 uL of dye probe) was prepared. 60 uL of the secondary reaction mixture was added to the plate where the reaction was performed, and incubated for 30 minutes in a shaker. The absorbance value was measured at a wavelength of 570 nm using a SpectraMax iD3 microplate reader. The percentage inhibition activity value (% inhibition) was calculated by the formula: (1 - absorbance value test group / absorbance value control group) X 100.
row,inhibition at 0.5 µM [%],SMILES
1,10.9,"Fc1cc2c(cc1F)CC(Nc1ncc(-c3nnc(N4CCC(n5cncn5)C4)o3)cn1)C2 (stereo not drawn) [Example 28, 5-(5-(3-(1H-1,2,4-triazol-1-yl)pyrrolidin-1-yl)-1,3,4-oxadiazol-2-yl)-N-(5,6-difluoro-2,3-dihydro-1H-inden-2-yl)pyrimidin-2-amine]"
2,9.2,"Cc1ncn(C2CCN(c3nnc(-c4cnc(NC5Cc6cc(F)c(F)cc6C5)nc4)o3)C2)n1 (stereo not drawn) [Example 29, N-(5,6-difluoro-2,3-dihydro-1H-inden-2-yl)-5-(5-(3-(3-methyl-1H-1,2,4-triazol-1-yl)pyrrolidin-1-yl)-1,3,4-oxadiazol-2-yl)pyrimidin-2-amine]"
3,96.9,"CC1(c2c[nH]nn2)CCN(c2nnc(-c3cnc(NC4Cc5cc(F)c(F)cc5C4)nc3)o2)C1 (stereo not drawn) [Example 30, N-(5,6-difluoro-2,3-dihydro-1H-inden-2-yl)-5-(5-(3-methyl-3-(1H-1,2,3-triazol-4-yl)pyrrolidin-1-yl)-1,3,4-oxadiazol-2-yl)pyrimidin-2-amine]"
4,96.8,"CC1(c2c[nH]nn2)CCN(c2nnc(-c3cnc(NC4Cc5ccccc5C4)nc3)o2)C1 (stereo not drawn) [Example 31, N-(2,3-dihydro-1H-inden-2-yl)-5-(5-(3-methyl-3-(1H-1,2,3-triazol-4-yl)pyrrolidin-1-yl)-1,3,4-oxadiazol-2-yl)pyrimidin-2-amine]"
5,21.9,"CC1(c2c[nH]nn2)CCN(c2nnc(-c3cnc(NCCc4cc(Cl)cc(Cl)c4)nc3)o2)C1 (stereo not drawn) [Example 32, N-(3,5-dichlorophenethyl)-5-(5-(3-methyl-3-(1H-1,2,3-triazol-4-yl)pyrrolidin-1-yl)-1,3,4-oxadiazol-2-yl)pyrimidin-2-amine]"
6,29.1,"CC1(c2c[nH]nn2)CCN(c2nnc(-c3cnc(NCc4cc(F)cc(F)c4)nc3)o2)C1 (stereo not drawn) [Example 33, N-(3,5-difluorobenzyl)-5-(5-(3-methyl-3-(1H-1,2,3-triazol-4-yl)pyrrolidin-1-yl)-1,3,4-oxadiazol-2-yl)pyrimidin-2-amine]"
7,88.4,"CC1(c2c[nH]nn2)CCN(C(=O)/C=C/c2cnc(NC3Cc4ccccc4C3)nc2)C1 (stereo not drawn) [Example 34, (E)-3-(2-((2,3-dihydro-1H-inden-2-yl)amino)pyrimidin-5-yl)-1-(3-methyl-3-(1H-1,2,3-triazol-4-yl)pyrrolidin-1-yl)prop-2-en-1-one]"
8,1.3,"Cn1cc(C2CCN(c3nnc(-c4cnc(NC5Cc6cc(F)c(F)cc6C5)nc4)o3)C2)nn1 (stereo not drawn) [Example 35, N-(5,6-difluoro-2,3-dihydro-1H-inden-2-yl)-5-(5-(3-(1-methyl-1H-1,2,3-triazol-4-yl)pyrrolidin-1-yl)-1,3,4-oxadiazol-2-yl)pyrimidin-2-amine]"
9,97.4,"Fc1ccc2c(c1)CC(Nc1ncc(-c3nnc(N4CCC(c5c[nH]nn5)C4)o3)cn1)C2 (stereo not drawn) [Example 36, 5-(5-(3-(1H-1,2,3-triazol-4-yl)pyrrolidin-1-yl)-1,3,4-oxadiazol-2-yl)-N-(5-fluoro-2,3-dihydro-1H-inden-2-yl)pyrimidin-2-amine]"
10,97.9,"Clc1ccc2c(c1)CC(Nc1ncc(-c3nnc(N4CCC(c5c[nH]nn5)C4)o3)cn1)C2 (stereo not drawn) [Example 37, 5-(5-(3-(1H-1,2,3-triazol-4-yl)pyrrolidin-1-yl)-1,3,4-oxadiazol-2-yl)-N-(5-chloro-2,3-dihydro-1H-inden-2-yl)pyrimidin-2-amine]"
11,55,"Fc1cc2c(cc1F)CC(Nc1ncc(-c3nnc(N4CCC(c5c[nH]cn5)C4)o3)cn1)C2 (stereo not drawn) [Example 38, 5-(5-(3-(1H-imidazol-4-yl)pyrrolidin-1-yl)-1,3,4-oxadiazol-2-yl)-N-(5,6-difluoro-2,3-dihydro-1H-inden-2-yl)pyrimidin-2-amine]"
12,98,"Fc1cc2c(cc1F)CC(Nc1ncc(-c3nnc(N4CC(c5c[nH]nn5)C4)o3)cn1)C2 [Example 39, 5-(5-(3-(1H-1,2,3-triazol-4-yl)azetidin-1-yl)-1,3,4-oxadiazol-2-yl)-N-(5,6-difluoro-2,3-dihydro-1H-inden-2-yl)pyrimidin-2-amine]"

# — patent publication EP4559911A1, “NOVEL HETEROCYCLIC COMPOUND AND PHARMACEUTICAL COMPOSITION FOR INHIBITING AUTOTAXIN COMPRISING THE SAME” (Nextgen Bioscience Co., Ltd., priority 2022, dated 2024)
